# The source made the active and inactive calls. No cut-off for these calls is given here.
# Columns and labels:
# [1] = tested on: Echinochloa oryzicola; assay: Herbicidal activity against Echinochloa oryzicola under greenhouse condition assessed as growth inhibition at 250 g /ha measured after 33 days; assay type: functional, organism-based
# [2] = tested on: Echinochloa oryzicola; assay: Herbicidal activity against Echinochloa oryzicola under greenhouse condition assessed as growth inhibition at 125 g /ha measured after 20 days; assay type: functional, organism-based
# [3] = tested on: Lindernia procumbens; assay: Herbicidal activity against Lindernia procumbens at 1000 g /ha treated at 1 to 2-pairs of leaf stage measured after 26 days by outdoor concrete pot test; assay type: functional, organism-based
# [4] = tested on: Echinochloa oryzicola; assay: Herbicidal activity against Echinochloa oryzicola under greenhouse condition assessed as growth inhibition at 125 g /ha measured after 13 days; assay type: functional, organism-based
# [5] = tested on: Rotala indica; assay: Herbicidal activity against Rotala indica at 250 g /ha treated at 1 to 2-pairs of leaf stage measured after 26 days by outdoor concrete pot test; assay type: functional, organism-based
# [6] = tested on: Echinochloa oryzicola; assay: Herbicidal activity against Echinochloa oryzicola under greenhouse condition assessed as growth inhibition at 125 g /ha measured after 27 days; assay type: functional, organism-based
# [7] = tested on: Elatine triandra; assay: Herbicidal activity against Elatine triandra at 1000 g /ha treated at 1 to 2-pairs of leaf stage measured after 26 days by outdoor concrete pot test; assay type: functional, organism-based
# [8] = tested on: Echinochloa oryzicola; assay: Herbicidal activity against Echinochloa oryzicola under greenhouse condition assessed as growth inhibition at 125 g /ha measured after 42 days; assay type: functional, organism-based
# [9] = tested on: Echinochloa oryzicola; assay: Herbicidal activity against Echinochloa oryzicola under greenhouse condition assessed as growth inhibition at 125 g /ha measured after 33 days; assay type: functional, organism-based
# [10] = tested on: Elatine triandra; assay: Herbicidal activity against Elatine triandra at 500 g /ha treated at 1 to 2-pairs of leaf stage measured after 26 days by outdoor concrete pot test; assay type: functional, organism-based
# [11] = tested on: Oryza sativa; assay: Phytotoxicity against two-leaf stage Oryza sativa cv. Nihonbare (rice) planted 1 cm depth measured after […]; assay type: organism-based; settings: in vivo
# [12] = tested on: Echinochloa oryzicola; assay: Herbicidal activity against Echinochloa oryzicola under greenhouse condition assessed as growth inhibition at 250 g /ha measured after 27 days; assay type: functional, organism-based
# [13] = tested on: Echinochloa oryzicola; assay: Herbicidal activity against Echinochloa oryzicola grown in water-drained pot under greenhouse condition assessed as time duration of residual effect at 500 g /ha; assay type: functional
# [14] = tested on: Sagittaria pygmaea; assay: Herbicide activity against Sagittaria pygmaea under greenhouse condition compound treated at 0.5 leaf-stage measured after 14 to 20 days; assay type: functional
# [15] = tested on: Echinochloa oryzicola; assay: Herbicidal activity against Echinochloa oryzicola at 1000 g /ha treated at 1.5 to 2-leaf stage measured after 26 days by outdoor concrete pot test; assay type: functional, organism-based
# [16] = tested on: Echinochloa oryzicola; assay: Herbicidal activity against Echinochloa oryzicola under greenhouse condition assessed as growth inhibition at 125 g /ha measured after 6 days; assay type: functional, organism-based
# [17] = tested on: Echinochloa oryzicola; assay: Herbicidal activity against Echinochloa oryzicola grown in water-drained pot under greenhouse condition assessed as growth inhibition at 500 g /ha measured after 33 days; assay type: functional, organism-based
# [18] = tested on: Echinochloa oryzicola; assay: Herbicidal activity against Echinochloa oryzicola under greenhouse condition assessed as growth inhibition at 250 g /ha measured after 20 days; assay type: functional, organism-based
# [19] = tested on: Echinochloa oryzicola; assay: Pre-emergence herbicide activity against Echinochloa oryzicola under greenhouse condition measured after 14 to 20 days; assay type: functional
# [20] = tested on: Cyperus serotinus; assay: Herbicidal activity against Cyperus serotinus at 500 g /ha treated at 1 to 1.5-leaf stage measured after 26 days by outdoor concrete pot test; assay type: functional, organism-based
# [21] = tested on: Echinochloa oryzicola; assay: Herbicidal activity against Echinochloa oryzicola at 500 g /ha treated at 1.5 to 2-leaf stage measured after 26 days by outdoor concrete pot test; assay type: functional, organism-based
# [22] = tested on: Echinochloa oryzicola; assay: Herbicidal activity against Echinochloa oryzicola under greenhouse condition assessed as growth inhibition at 1000 g /ha measured after 13 days; assay type: functional, organism-based
# [23] = tested on: Echinochloa oryzicola; assay: Herbicidal activity against Echinochloa oryzicola grown in water-drained pot under greenhouse condition assessed as growth inhibition at 125 g /ha measured after 6 days; assay type: functional, organism-based
# [24] = tested on: Lindernia procumbens; assay: Herbicidal activity against Lindernia procumbens at 250 g /ha treated at 1 to 2-pairs of leaf stage measured after 26 days by outdoor concrete pot test; assay type: functional, organism-based
# [25] = tested on: Rotala indica; assay: Herbicidal activity against Rotala indica at 500 g /ha treated at 1 to 2-pairs of leaf stage measured after 26 days by outdoor concrete pot test; assay type: functional, organism-based
smiles,measurement,setting,value
CC1=C(c2ccccc2)C(=O)N(C(C)(C)c2nc3ccccc3s2)C1,growth inhibition (GI),[1],inactive
same,growth inhibition (GI),[2],Active
same,growth inhibition (GI),[3],Active
same,growth inhibition (GI),[4],Active
same,growth inhibition (GI),[5],Active
same,growth inhibition (GI),[6],Active
same,growth inhibition (GI),[7],Active
same,growth inhibition (GI),[8],Active
same,growth inhibition (GI),[9],Active
same,growth inhibition (GI),[10],Active
same,MTD,[11],2.5 g/acre
same,growth inhibition (GI),[12],inactive
same,Time,[13],>42 days
same,MED,[14],20 g/acre
same,growth inhibition (GI),[15],Active
same,growth inhibition (GI),[16],Active
same,growth inhibition (GI),[17],Active
same,growth inhibition (GI),[18],Active
same,MED,[19],0.313 g/acre
same,growth inhibition (GI),[20],Active
same,growth inhibition (GI),[21],Active
same,growth inhibition (GI),[22],Active
same,growth inhibition (GI),[23],Active
same,growth inhibition (GI),[24],Active
same,growth inhibition (GI),[25],Active
